Reference: patent US11207369B2, “Compositions and methods for modulating ciliogenesis” (UNIVERSITY OF PITTSBURGH-OF THE COMMONWEALTH SYSTEM OF …, priority 2017, dated 2021)
“Also recorded” adds a separate entry of the source.

How the values were obtained:
[1] = tested on: Hes1, Hes5, Hey1, Notch1, Psen1, Hif1α, nNOS, iNOS, eNOS; assay: qPCR of gene expression in mouse tracheal epithelial cells during ciliogenesis; assay type: cell-based; settings: 2 nM DAPT vs untreated, varying time points in suspension culture, most prominently day 5
Procedure: FIGS. 7(A-I) are graphs showing quantitative […] (qPCR) of gene expression in mouse tracheal epithelial cells during ciliogenesis. Cells were grown to confluence in stationary culture, treated with collagenase, then placed into suspension culture having 0 nM or 2 nM DAPT, which marked the “baseline” time point. At the indicated times, qPCR experiments were performed to detect gene expression of Hes1 (FIG. 7A), Hes5 (FIG. 7B), Hey1 (FIG. 7C), Psen1 (FIG. 7D), Hif1α (FIG. 7E), Notch1 (FIG. 7F), nNOS (FIG. 7G), iNOS (FIG. 7H), and eNOS (FIG. 7I).
Indeed, expression of multiple genes such as Hes1, Hes5, Hey1, Notch1, Psen1, Hif1α, nNOS, iNOS, and eNOS was altered at varying time points during ciliogenesis in suspension culture containing 2 nM DAPT, as compared to untreated (no DAPT) controls (FIGS. 7A-[…]). […] This effect was most marked for the three isoforms of nitric oxide synthase (NOS).

[2] = tested on: mouse tracheal epithelial cells; assay: Ex vivo reciliation of mouse tracheal epithelial cells in suspension culture (video-microscopy); assay type: cell-based
Excerpt: All animal protocols were approved by the University of Pittsburgh Animal Care and Use Committee. Wild-type, C57B6, adult mice (6-8 weeks of age) were euthanized with inhalational CO2, anterior neck regions were washed with 70% ethanol, and a transverse incision was made across the neck at the mid-cervical level. […] The trachea was gently dissected from the underlying adherent esophagus and connective tissue, pulled out and transected proximally first from the larynx and then distally as far down as possible, close to the carina, and placed in a petri dish containing about 10 ml Leibovitz-15 solution (Gibco; 21083). Isolated tracheas were cleaned of adherent muscle tissue, blood vessels and fat under a dissecting microscope, then incised, splaying the trachea length-wise.
Twelve ml of Leibovitz-15 solution were placed in a 15 ml falcon tube, and 6 cleaned, incised tracheas were added to each tube. Pronase (Protease from Streptomyces griseus, Sigma, P5147) was added to a final concentration of 1.5 mg/ml (Stock solution, 150 mg/ml, 100×) and placed in 4° C. overnight with gentle shaking. After incubation, Pronase was neutralized with addition of fetal bovine serum to a final concentration of 10% (1.2 ml/tube). Tracheas and denuded epithelial cells were centrifuged at 1200 rpms for 6 minutes. Supernatant was aspirated, and trachea/cells were re-suspended in 12 ml Stationary media (500 ml DMEM/F12, 10 ml of Ultroser G, and 10 ml of 100× Antibiotics-Antimycotic). The cells/tracheas were pipetted up and down vigorously 12-20 times, and vortexed to re-suspend pelleted tracheas if necessary. Trachea/cells were centrifuged again, supernatants were aspirated, pellets were re-suspended in 6 ml of stationary medium, and then everything was transferred to a Primaria plate (Corning, 353803) or a regular cell culture plate (Corning, 353003), and incubated at 37° C./5% CO2 for 6 hours. This was performed to plate out fibroblasts, thereby minimizing contamination of tracheal epithelial cells with fibroblasts. After incubation, non-adherent cells were collected by lightly washing the plates with stationary media present in the plates. Cells were pelleted, supernatant aspirated, cells re-suspended in 12 ml of stationary medium and added to a 6-well plate (2 ml/well) coated with rat tail collagen.
Tracheal epithelial cells were obtained from mice and processed for stationary culture as detailed above. The tracheal epithelial cells were placed onto rat-tail collagen coated wells and then incubated at 37° C./5% CO2 for 36-48 hrs. Over the course of about 48 hours, the cells seeded onto the collagen lost their cilia and underwent proliferative growth, expanding in numbers. […]

ependymal cells = assay: Intrathecal administration to subjects with hydrocephalus, video-microscopy of ependymal cells; assay type: in vivo, human; settings: approx. 1 mg/kg intrathecal once
Procedure: Ten subjects are diagnosed with hydrocephalus. Each subject provides informed consent regarding providing epithelial cell samples and to receiving a blinded treatment of either DAPT or a control placebo. Intrathecal biopsy is used to obtain ependymal cells from the cerebrospinal fluid of each subject. The ependymal cells are placed into suitable medium such as Leibovitz-15 medium. Thereafter, cell samples are evaluated for percentage ciliation, cilia length, and/or cilia beat frequency by video-microscopy, and the results are recorded. Video-microscopy confirms each subject has ependymal cells which are reduced in cilia number, cilia length, and/or cilia beat frequency compared to averages or standards present in the medical literature. […]
On day eight post-injection, ependymal cells are obtained from the cerebrospinal fluid of each subject by intrathecal biopsy. […] Thereafter, cell samples are evaluated for percentage ciliation, cilia length, and/or cilia beat frequency by video-microscopy, and the results are recorded. Video-microscopy confirms each of the five DAPT-treated subjects has ependymal cells which are increased in cilia number, cilia length, and/or cilia beat frequency as compared to both 1) the ependymal cells of placebo-treated subjects, and 2) the pre-treatment measurements recorded for ependymal cells of each respective DAPT-treated subject. […]

[3] = tested on: human nasal epithelial cells; assay: Ex vivo reciliation of human nasal epithelial cells in suspension culture (video-microscopy); assay type: cell-based; settings: 2 nM DAPT vs regular media
Procedure: Cells were immediately placed into 5 ml Leibovitz-15 medium prior to processing for stationary culture.
These cells were spun down, the supernatant was aspirated, cells were resuspended in 6 ml of stationary medium, and then plated onto 3 wells of a 6-well rat tail collagen coated plate. The media was changed 48-72 hours post plating and fed every 2 days until confluence was reached. Following confluence, the treatment of mouse tracheal epithelial cells and human nasal epithelial cells was identical e.g., placement into suspension culture, video microscopy, etc. siRNA knockdown was only performed in mouse tracheal tissue due to the paucity of human nasal epithelial cells.
Once confluence was reached, typically occurring between about 7 to 10 days, the stationary media was aspirated, and collagen was digested with 1 ml of Collagenase 4 (200 IU/ml, Worthington, LS004210) for 75-90 mins at 37° C./5% CO2. After incubation, collagenase was neutralized using 2 ml of Suspension media (500 ml DMEN/F12, 50 ml NuSerum, 10 ml 100× Antibiotics-Antimycotic). Cells adherent to the bottom of the plate were gently scrapped off with a cell scraper (Fisherbrand, 08-100-241). […]
Reciliation was observed by about days 7 to 9 with high-speed video-microscopy (200 fps) with a 60× oil-immersion lens (FIG. 2A). […] The outlined total surface and ciliated surface alone was quantified. Extent of ciliation was calculated by dividing the length of ciliated surface by the length of the entire surface available for ciliation, and converted to a percentage.
To measure cilia length in reciliated nasal tissue, each recording was processed with a custom script written for Fiji, an open-source image analysis software (Schindelin, et al., Nat. Methods, 2012, 9:676-682). This script used the Temporal Median filter to segment patches of cilia based on movement, and the Thickness tool in the BoneJ analysis toolkit (Doube, et al., Bone, 2010, 47:1076-1079) measured average cilia length. Ciliary beat frequency was measured in cilia beats per second (Hertz).] […]

airway epithelial cells = assay: Inhalational administration to subjects with COPD, video-microscopy of airway epithelial cells; assay type: in vivo, human; settings: approx. 1 mg/kg inhaled once per day for seven days
Procedure: Ten subjects are diagnosed with Chronic Obstructive Pulmonary Disease (COPD). Each subject provides informed consent regarding providing epithelial cell samples and to receiving a blinded treatment of either DAPT or a control placebo. […] The epithelial cells are placed into suitable medium such as Leibovitz-15 medium. Thereafter, cell samples are evaluated for percentage ciliation, cilia length, and/or cilia beat frequency by video-microscopy, and the results are recorded. Video-microscopy confirms each subject has epithelial cells which are reduced in cilia number, cilia length, and/or cilia beat frequency compared to averages or standards present in the medical literature.
DAPT is inhalationally administered to five of the subjects via a nebulizer or an inhaler (hereinafter, “DAPT-treated subjects”). […]
The epithelial cells are placed into suitable medium such as Leibovitz-15 medium. Thereafter, cell samples are evaluated for percentage ciliation, cilia length, and/or cilia beat frequency by video-microscopy, and the results are recorded. Video-microscopy confirms each of the five DAPT-treated subjects has epithelial cells which are increased in cilia number, cilia length, and/or cilia beat frequency as compared to both 1) the epithelial cells of placebo-treated subjects, and 2) the pre-treatment measurements recorded for epithelial cells of each respective DAPT-treated subject. […]

[4] = 2 nM DAPT vs untreated, 8 days suspension culture
[5] = day eight, vs placebo and pre-treatment
[6] = 12 subjects with congenital heart defects

C[C@H](NC(=O)Cc1cc(F)cc(F)c1)C(=O)N[C@H](C(=O)OC(C)(C)C)c1ccccc1 [DAPT, N—[N-(3,5-Difluorophenacetyl)-L-alanyl]-S-phenylglycine t-butyl ester] was tested, and the “expression of Hes1, Hes5, Hey1, Notch1, Psen1, Hif1α, nNOS, iNOS and eNOS” value [1] was “altered”, the cilia beat frequency [2, 4] was “significantly increased” and the cilia length [2, 4] was “significantly increased”. The “increased ciliogenesis over baseline (percent ciliation)” value ([2]; 2 nM DAPT, 8 days suspension culture) was roughly 3 fold, the “toxicity to cells (cell death, very few if any ciliated cells)” value ([2]; 2 μM DAPT or more, DMSO volume constant) was “toxic to cells” and the “cilia number, cilia length, and/or cilia beat frequency of ependymal cells” value (ependymal cells; [5]) was “increased”. For the same molecule, the “symptoms of hydrocephalus (e.g., headache)” value (ependymal cells; some subjects) was “ameliorated”, the “percentage reciliation (percent ciliation)” value ([3]; 12 paired samples from subjects with congenital heart defects) was “significantly greater; also recorded: significant increases” and the cilia beat frequency [3, 6] was “significantly increased; also recorded: significant increases”. For the same molecule, the cilia length [3, 6] was “significantly increased; also recorded: significant increases”, the “cilia number, cilia length, and/or cilia beat frequency of epithelial cells” value (airway epithelial cells; [5]) was “increased” and the “symptoms of COPD (e.g., coughing)” value (airway epithelial cells; some subjects) was “ameliorated”.
